Laboratory results reported in patent US20150060744A1, “[…] BLUE DYE COMPOUND, BLUE RESIN COMPOSITION FOR COLOR FILTER CONTAINING SAME AND COLOR FILTER USING SAME” (KYUNG SYNTHETIC CO., LTD., priority 2012, published 2015).

Assay: Solubility of blue dye compounds in PGMEA and cyclohexanone
Type: physicochemical
Conditions: for Solubility in PGMEA: solvent PGMEA (propylene glycol monomethyl ether acetate); for Solubility in cyclohexanone: solvent cyclohexanone

Solubility in PGMEA [%]	Solubility in cyclohexanone [%]	Compound
<1	<3	C=C(C)C(=O)OCCN(CC)c1ccc(C(=C2C=CC(=[N+](CC)CCOC(=O)C(=C)C)C=C2)c2ccc(Nc3ccccc3)c3ccccc23)cc1 [Comp. Ex. 1]
<1	<3	CN(C)c1ccc(C(=C2C=CC(=[N+](C)C)C=C2)c2ccc(Nc3ccccc3)c3ccccc23)cc1 [compound 2]
>10	>10	C=C(C)C(=O)OCCN(CC)c1ccc(C(=C2C=CC(=[N+](CC)CCOC(=O)C(=C)C)C=C2)c2ccc(Nc3ccccc3)c3ccccc23)cc1 [Syn. Ex. 1]
